In US20190046490A1, “METHODS OF TREATING LACTOSE INTOLERANCE” (Nogra Pharma Limited, priority 2016, published 2019):

Biological target: T1, PPARγ bound to DR2 PPRE of the LCT gene promoter (Homo sapiens, UniProt P37231)
T1 construct: Chromatin immunoprecipitation (ChIP) experiments in Caco-2 cells (5×10^6 cells) stimulated for 24 hours with 1 mM GED; endogenous in cells; host or cells: Caco-2 (colonic adenocarcinoma) cells
T1 sequence (P37231 1-505): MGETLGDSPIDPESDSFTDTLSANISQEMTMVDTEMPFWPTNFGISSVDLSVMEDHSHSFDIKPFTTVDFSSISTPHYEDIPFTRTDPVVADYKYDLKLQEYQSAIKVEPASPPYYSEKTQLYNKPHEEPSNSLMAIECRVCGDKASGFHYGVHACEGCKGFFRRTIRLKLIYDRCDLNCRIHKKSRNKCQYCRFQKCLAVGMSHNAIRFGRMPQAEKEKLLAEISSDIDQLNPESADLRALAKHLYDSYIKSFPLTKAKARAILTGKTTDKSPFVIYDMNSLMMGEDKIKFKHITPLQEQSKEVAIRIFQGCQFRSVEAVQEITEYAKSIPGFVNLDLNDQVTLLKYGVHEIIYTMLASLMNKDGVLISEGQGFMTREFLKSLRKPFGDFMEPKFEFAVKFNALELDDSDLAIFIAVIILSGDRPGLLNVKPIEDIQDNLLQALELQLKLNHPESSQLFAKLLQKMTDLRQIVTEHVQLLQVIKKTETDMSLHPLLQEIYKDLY
T1 sequence (P19793 1-462 partner): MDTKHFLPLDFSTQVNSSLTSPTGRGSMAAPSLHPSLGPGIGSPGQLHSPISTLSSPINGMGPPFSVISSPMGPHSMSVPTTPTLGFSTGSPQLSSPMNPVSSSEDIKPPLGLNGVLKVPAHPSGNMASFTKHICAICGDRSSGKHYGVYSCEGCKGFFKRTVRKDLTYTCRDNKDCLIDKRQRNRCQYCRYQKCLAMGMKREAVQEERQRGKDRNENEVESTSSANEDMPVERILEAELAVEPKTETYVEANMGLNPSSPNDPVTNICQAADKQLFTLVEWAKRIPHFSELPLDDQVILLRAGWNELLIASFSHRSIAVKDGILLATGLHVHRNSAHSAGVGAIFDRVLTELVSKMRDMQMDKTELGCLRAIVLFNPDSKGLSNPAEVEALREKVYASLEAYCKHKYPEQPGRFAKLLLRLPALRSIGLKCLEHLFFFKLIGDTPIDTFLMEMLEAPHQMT
Test: Chromatin immunoprecipitation of PPARγ on the LCT gene promoter in Caco-2 cells
Format: cell-based
Settings: 1 mM, 24 hours
Experimental: The physical binding of PPARγ onto the LCT gene promoter was studied by Chromatin immunoprecipitation (ChIP) experiments in Caco-2 cells (5×10^6 cells) stimulated for 24 hours with 1 mM GED in 100 mm cell culture petri dishes. Caco-2 cells were synchronized by the addition of serum-free medium for 16 hours and then stimulated for 24 hours using the protocol described previously. Cells were then rinsed with PBS and the protein-DNA complexes were fixed by adding 1% PFA for 30 minutes at room temperature. This binding was stopped by the addition of glycine (0.125M). Cells were collected by scraping in the presence of cold PBS and protease inhibitors (Sigma). The cell pellet obtained by centrifugation was taken up in 300 μl SDS buffer (1% SDS, 10 mM EDTA, 50 mM Tris-HCl pH 8, protease inhibitors) and sonicated (Diagenode, BioruptorUCD200TM-EX) for 30 seconds, followed by 30 seconds resting time. For each immunoprecipitation, 125 μL of crosslinked sonicated sample was diluted with 225 μl of IP buffer (1% triton X-100, 150 mM NaCl, 2 mM EDTA, 20 mM Tris-HCl pH 8.1 and protease inhibitors) and pre-cleared for four hours by adding 40 μL of protein A/G beads (50% slurry protein A/G Sepharose, Clinisciences) and 5 μg of salmon sperm DNA (Invitrogen). […] DNA was then purified using the PCR Clean-up kit (Macherey-Nagel) and analyzed by PCR.

COC(Cc1ccc(N)cc1)C(=O)O (stereo not shown) [GED, 3-(4′-aminophenyl)2-methoxypropionic acid]
increase of the amount of PPARγ bound to the DR2 PPRE compared to unstimulated cells: 2 fold
